Counter-ions that a name gives are not always drawn.
Assay: Solubility of dantrolene sodium salt with cyclodextrins at pH 6.0 to 10.0 (FIGS. 1-5, 11, 12)
Type: physicochemical
Details: pH 9; 2-hydroxypropyl-β-cyclodextrin 50 mg/ml, dantrolene sodium salt 1 mg/ml
Experimental: In these experiments four different cyclodextrins were tested in combination with dantrolene sodium salt. The concentration of the cyclodextrin compound was 50 mg/ml and the concentration of dantrolene sodium salt was 1 mg/ml. The pH values were adjusted by using a buffer composed of phosphate 25 mM and Tromethamine 25 mM in water to reach pH 6.0, 7.0, 8.0, 9.0 and 10.0, respectively. The obtained solutions were stored at room temperature and examined over the course of 10 days. The solubility of dantrolene sodium salt was determined after 24 and 48 hours. The solutions were analyzed by visual observation, whilst the content of the dantrolene sodium salt and the degradation profile were determined by HPLC and pH value monitoring.
Dantrolene content and degradation profiles were determined on an Agilent Series 1100 HPLC equipment (Agilent Technologies Inc, Santa Clara, CA, USA) fitted with a quaternary pump, an autosampler, a diode-array detector and a thermostated column compartment. Samples were analyzed on a Kinetex XB-C18 column (75×4.6 mm, 2.6 μm, Phenomenex) with mobile phases consisting of water with 0.1% formic acid (A) and acetonitrile with 0.1% formic acid (B) using a linear gradient from 15% to 45% (B) in 12 minutes. […]

O=C1CN(/N=C/c2ccc(-c3ccc([N+](=O)[O-])cc3)o2)C(O)=N1 [dantrolene salt, dantrolene sodium salt]
solubility of the dantrolene salt: almost complete solubility

Source: patent US11844782B2, “Aqueous composition comprising dantrolene” (SPEPHARM AG, priority 2015, dated 2023)
